Results on four compounds are retold here after US6334996B1, “Chelators that predominantely form a single stereoisomeric species upon coordination to a metal center” (Resolution Pharmaceuticals Inc., priority 1997, dated 2002).

The conditions of series [1]: humans; cited from earlier work.
Series [2] can be described thus: log D of the metal complexes. Format: physicochemical. Particulars: ^99mTc complex.

As for “Tc complex of 2,3-bis(mercaptoacetamide)propanoate [anti isomer of the Tc complex of 2,3-bis(mercaptoacetamide)propanoate (map)]”, the “excreted at 30 minutes” value in series [1] is given as 19%.
As to `CN(C)CC(=O)N[C@@H](CO)C(=O)N[C@@H](CS)C(=O)NCC(=O)O` [^99mTc complex of dimethylglycine-serine-cysteine-glycine, metal not drawn], the logD in series [2] was -2.3.
“Tc complex of 2,3-bis(mercaptoacetamide)propanoate [syn isomer of the Tc complex of 2,3-bis(mercaptoacetamide)propanoate (map)]”: the “excreted at 30 minutes” value in series [1] is on record as 58%.
As to `CN(C)CC(=O)N[C@H](C(=O)N[C@@H](CS)C(=O)NCC(=O)O)C(C)(C)C` [^99mTc complex of dimethylglycine-t-butylglycine-cysteine-glycine, metal not drawn], in series [2], the logD was -1.3.
